The text below walks through data of patent publication US10633395B2, “Aryloxazolidinone antibiotic compounds” (Idorsia Pharmaceuticals Ltd., priority 2017, dated 2020).

Converted amounts (≈) assume the structure as drawn.

In data set [1] the test system is Staphylococcus aureus A798. In words: Bacterial growth minimal inhibitory concentration (microdilution), S. aureus A798. The following applies: multiply resistant (quinolone-resistant) strain, cation-adjusted Mueller-Hinton Broth. Format: cell-based. The protocol: (§1) Bacterial growth minimal inhibitory concentrations: Minimal inhibitory concentrations (MICs; mg/L) were determined in cation-adjusted Mueller-Hinton Broth by a microdilution method following the description given in “Methods for Dilution Antimicrobial Susceptibility Tests for Bacteria that Grow Aerobically”, Approved standard, 7th ed., Clinical and Laboratory Standards Institute (CLSI) Document M7-A7, Wayne, Pa., USA (2006).
(§2) The compound of Example 1 according to the present invention (inv.) and reference compounds 4 (ref.) to 9 (ref.) were tested against several Gram-positive and Gram-negative bacteria. Staphylococcus aureus A798 is a multiply resistant strain (in particular quinolone-resistant), Klebsiella pneumoniae A-651 is a multiply resistant strain (in particular quinolone-resistant), while E. coli ATCC25922 and P. aeruginosa ATCC27853 are quinolone-sensitive strains. The corresponding antibacterial test results are given in Table 1 hereafter (MICs in mg/L).

In the next data set the test system is E. coli ATCC25922. Briefly: Bacterial growth minimal inhibitory concentration (microdilution), E. coli ATCC25922. The following applies: Escherichia coli, quinolone-sensitive strain, cation-adjusted Mueller-Hinton Broth. The class given is cell-based. How it is done: as §1, §2
(In general: Dilution methods test growth across graded concentrations, often in twofold steps.)

In data set [2] the test system is Klebsiella pneumoniae A-651. Briefly: Bacterial growth minimal inhibitory concentration (microdilution), K. pneumoniae A-651. Format: cell-based. The note with it: A651, multiply resistant (quinolone-resistant) strain, cation-adjusted Mueller-Hinton Broth. How it is done: as §1, §2
In a further data set the test system is P. aeruginosa ATCC27853. In words: Bacterial growth minimal inhibitory concentration (microdilution), P. aeruginosa ATCC27853. The class given is cell-based. The note with it: Pseudomonas aeruginosa, quinolone-sensitive strain, cation-adjusted Mueller-Hinton Broth, read-out: MIC for P. aeruginosa AT0027853. The protocol:
as §1, §2

The test system of the next data set is CHO cells. In words: Genetic toxicology: in vitro micronuclei formation in CHO cells. The class given is cell-based, Chinese hamster. The following applies: 24 h treatment, ratio versus untreated cells. How it is done: Genetic toxicology testing of compounds to assess their ability to cause DNA damage was done in vitro in mammalian cell assays (CHO cells). The formation of micronuclei, small DNA-staining particles outside of the nucleus, was investigated in mononucleated and binucleated cells treated with increasing concentrations of a test compound for 24 h. DNA was stained with Hoechst 33342 (Mutat Res. 630:1-13, 2007), read with a high-content screening microscope (Opera Phenix, Perkin Elmer) and scored with an optimized algorithm using Harmony. Micronucleii associated with valid cells were enumerated and induction of micronuclei formation tabulated as ratio versus untreated cells if the fraction of valid cells was ≥0.2.
Genetic toxicity potential of the compound of Example 1 according to the present invention (inv.) and reference compounds (ref.) was assessed and the corresponding test results are given in Table 3 hereafter.

For data set [3], the system named is CYP3A4, CYP2C9 and CYP2D6 (lowest IC50 of the isoforms measured). In words: Cytochrome P450 inhibition in human liver microsomes. The note with it: lowest of isoforms 3A4, 2C9 and 2D6, 0-100 μM test compound, read-out: CYP450 lowest IC50 of the isoenzymes measured. The class given is in vitro ADME. The protocol: Cytochrome P450 inhibition: The objective of this in vitro assay was to assess potential inhibition of the human cytochrome P450 (CYP450) isoforms 3A4, 2C9 and 2D6 using human liver microsomes and isoform-specific marker reactions. […] This may affect plasma levels in vivo and potentially lead to adverse drug reactions or toxicity. Technically, specific marker-substrate of P450 enzymes were incubated with human liver microsomes in the presence/absence of a test compounds. The inhibition effect of the test compound towards the marker reaction was determined in incubations containing 0-100 μM of the test compound. The inhibitory effect was determined by the impact of the different compound concentrations towards the metabolite formation of the marker reaction. Formation of the metabolites was determined by LC-MS analysis. Metabolic stability of the compounds according to the present invention (inv.) and reference compounds (ref.) in human liver microsomes and inhibition of the human cytochrome P450 (CYP450) isoforms 3A4, 2C9 and 2D6 are given in Table 4 hereafter.
For orientation: Liver microsomes are a subcellular fraction often used to study metabolism.

The nature of data set [4]: Metabolic stability: intrinsic clearance in human liver microsomes. The note with it: 1 μM compound, up to 45 minutes. Format: in vitro ADME. How it is done: Metabolic stability: Subcellular liver fractions and primary hepatocytes from different species were used to determine the in vitro intrinsic clearance of a compound in various species. The liver microsomal and hepatocytes in vitro half-life approach can be a suitable approach to measure intrinsic clearance in vitro, which can be scaled up to the in vivo situation and used in the prediction of human clearance (Obach et al., 1997). For this approach, […] were incubated for up to 45 minutes in subcellular liver fractions or 2 h in primary hepatocytes at final compound concentration of 1 μM. Disappearance of parent compound was determined by LC-MS analysis and intrinsic clearance calculated from the slope of compound disappearance thereof.
Metabolic stability of the compounds according to the present invention (inv.) and reference compounds (ref.) in human liver microsomes and inhibition of the human cytochrome P450 (CYP450) isoforms 3A4, 2C9 and 2D6 are given in Table 4 hereafter.

A further data set relates to wild-type E. coli A-1261. In words: MIC against wild-type E. coli A-1261 with or without alkaline phosphatase or esterase (prodrug activation). The note with it: for MIC for E. coli A-1261 In the presence of an alkaline phosphatase (2 i.U./mL): alkaline phosphatase from bovine intestinal mucosa; for MIC for E. coli A-1261 In the presence of an esterase (10 i.U./mL): esterase from porcine liver; for MIC for E. coli A-1261 In the absence of alkaline phosphatase and esterase: no alkaline phosphatase, no esterase. Format: cell-based. How it is done:
as §1
The compounds of Examples 2 and 3 of the present invention (inv.) were tested against wild-type E. coli A-1261 in the presence of alkaline phosphatase (from bovine intestinal mucosa: Sigma P6774-2KU; Lot: SLBB1168) or esterase (from porcine liver: Sigma E2884-5KU; Lot: 129K7010V), and in the absence of an alkaline phosphatase and esterase. The corresponding antibacterial test results are given in Table 2 hereafter (MICs in mg/L).

Take `O=C1COc2ccc(N3C[C@H](CCCN[C@@H]4Cn5c(=O)ccc6cccc4c65)OC3=O)nc2N1` [Example 1, (S)-1-{3-[(S)-2-oxo-3-(3-oxo-3,4-dihydro-2H-pyrido[3,2-b][1,4]oxazin-6-yl)-oxazolidin-5-yl]-propylamino}-1,2-dihydro-pyrrolo[3,2,1-ij]quinolin-4-one]: the MIC – broadly, the least concentration at which growth counts as inhibited – amounted to 0.031 µg/mL (≈ 0.0672 µM) in data set [1], 0.25 µg/mL (≈ 0.542 µM) in the data set on E. coli ATCC25922, 0.5 µg/mL (≈ 1.08 µM) in data set [2] and 1 µg/mL (≈ 2.17 µM) with P. aeruginosa ATCC27853. Besides, the “Maximal induction of micronuclei formation normalized vs. background” value in the data set with CHO cells stood at 2.5. Besides, the IC50 (as a rule, the concentration needed to halve the response being measured) in data set [3] was above 50 µM. For the same compound, in data set [4], the “Intrinsic clearance in human liver microsomes” value is listed as 15 μL/min * mg microsomal protein.

For `O=C1COc2ccc(N3C[C@H](CCCN(C(=O)OCOC(=O)CCc4ccccc4OP(=O)(O)O)[C@@H]4Cn5c(=O)ccc6cccc4c65)OC3=O)nc2N1` [Example 3], in the data set with wild-type E. coli A-1261, the “MIC for E. coli A-1261 In the presence of an alkaline phosphatase (2 i.U./mL)” value is on record as 0.25 mg/L; the “MIC for E. coli A-1261 In the presence of an esterase (10 i.U./mL)” value was found to be 1 mg/L; the “MIC for E. coli A-1261 In the absence of alkaline phosphatase and esterase” value is given as above 8 mg/L.

Turning to `O=C1COc2ccc(N3C[C@H](CCCN(C(=O)OCOP(=O)(O)O)[C@@H]4Cn5c(=O)ccc6cccc4c65)OC3=O)nc2N1` [Example 2], in the data set on wild-type E. coli A-1261, the “MIC for E. coli A-1261 In the presence of an alkaline phosphatase (2 i.U./mL)” value was found to be 0.25 mg/L; the “MIC for E. coli A-1261 In the presence of an esterase (10 i.U./mL)” value was above 8 mg/L; the “MIC for E. coli A-1261 In the absence of alkaline phosphatase and esterase” value is listed as above 8 mg/L.
